≈ marks a conversion by molar mass, not a printed value.
Experiments:
Format in all cases: functional
MOLT-4 = experiment: Cytotoxic activity against human MOLT-4 cell line was measured after 72 hr using MTT assay; conditions: Homo sapiens, MOLT-4, 72 h; read-out: ED50 (the source's name)
U-937 = experiment: Cytotoxic activity against human U937 cell line was measured after 72 hr using MTT assay; conditions: Homo sapiens, U-937, 72 h; read-out: ED50 (the source's name)
L132 = experiment: Cytotoxic activity against human L132 cell line was measured after 72 hr using MTT assay; conditions: L132, 72 h, read-out: ED50 (the source's name)
BRISTOL8 = experiment: Cytotoxic activity against human BRISTOL8 cell line was measured after 72 hr using MTT assay; conditions: Homo sapiens, BRISTOL8, 72 h; read-out: ED50 (the source's name)
A549 = experiment: Cytotoxic activity against human A549 cell line was measured after 72 hr using MTT assay; conditions: A549, 72 h, read-out: ED50 (the source's name)
Jurkat = experiment: Cytotoxic activity against human JurkatE6.1 cell line was measured after 72 h using MTT assay; conditions: Homo sapiens, Jurkat, 72 h; read-out: ED50 (the source's name)
CCRF-CEM = experiment: Cytotoxic activity against human CEM.CM3 cell line was measured after 72 hr using MTT assay; conditions: Homo sapiens, CCRF-CEM, 72 h; read-out: ED50 (the source's name)
PA-1 = experiment: Cytotoxic activity against human PA-1 cell line was measured after 72 hr using MTT assay; conditions: Homo sapiens, PA-1, 72 h; read-out: ED50 (the source's name)
DU-145 = experiment: Cytotoxic activity against human DU145 cell line was measured after 72 hr using MTT assay; conditions: Homo sapiens, DU-145, 72 h; read-out: ED50 (the source's name)

CC(C)[C@@H]1CC[C@]2(C(=O)O)CC[C@]3(C)C(CCC4[C@@]5(C)CC/C(=N\Nc6ccccc6)C(C)(C)C5CC[C@]43C)C12 (stereo partly specified)
EC50 (MOLT-4): 1.4 µg/mL (≈ 2.56 µM)
EC50 (U-937): 2.2 µg/mL (≈ 4.02 µM)
EC50 (L132): 7.4 µg/mL (≈ 13.5 µM)
EC50 (BRISTOL8): 3.7 µg/mL (≈ 6.77 µM)
EC50 (A549): > 10 µg/mL
EC50 (Jurkat): 6.3 µg/mL (≈ 11.5 µM)
EC50 (CCRF-CEM): 2.9 µg/mL (≈ 5.3 µM)
EC50 (PA-1): 0.4 µg/mL (≈ 0.731 µM)
EC50 (DU-145): 0.6 µg/mL (≈ 1.1 µM)

CC(C)[C@@H]1CC[C@]2(C(=O)O)CC[C@]3(C)C(CCC4[C@@]5(C)CC/C(=N\O)C(C)(C)C5CC[C@]43C)C12 (stereo partly specified)
EC50 (MOLT-4): 2.1 µg/mL (≈ 4.45 µM)
EC50 (U-937): 2.4 µg/mL (≈ 5.09 µM)
EC50 (L132): 1.5 µg/mL (≈ 3.18 µM)
EC50 (BRISTOL8): 1.6 µg/mL (≈ 3.39 µM)
EC50 (A549): > 1.8 µg/mL
EC50 (Jurkat): 1.8 µg/mL (≈ 3.82 µM)
EC50 (CCRF-CEM): 2.6 µg/mL (≈ 5.51 µM)
EC50 (PA-1): 0.7 µg/mL (≈ 1.48 µM)
EC50 (DU-145): 1.1 µg/mL (≈ 2.33 µM)

C=C(C)[C@@H]1CC[C@]2(C(=O)O)CC[C@]3(C)C(CCC4[C@@]5(C)CC[C@H](OC(=O)C(C)C(=O)OC)C(C)(C)C5CC[C@]43C)C12 (stereo partly specified)
EC50 (MOLT-4): 1.2 µg/mL (≈ 2.1 µM)
EC50 (U-937): 1.1 µg/mL (≈ 1.93 µM)
EC50 (L132): > 10 µg/mL
EC50 (BRISTOL8): 1.7 µg/mL (≈ 2.98 µM)
EC50 (A549): > 10 µg/mL
EC50 (Jurkat): 0.9 µg/mL (≈ 1.58 µM)
EC50 (CCRF-CEM): 1.6 µg/mL (≈ 2.8 µM)
EC50 (PA-1): 3.6 µg/mL (≈ 6.31 µM)
EC50 (DU-145): 1.6 µg/mL (≈ 2.8 µM)

C=C(C)[C@@H]1CC[C@]2(C(=O)O)CC[C@]3(C)C(CCC4[C@@]5(C)CC[C@H](OC(C)=O)C(C)(C)C5CC[C@]43C)C12 (stereo partly specified)
EC50 (MOLT-4): 3.1 µg/mL (≈ 6.22 µM)
EC50 (U-937): 1.6 µg/mL (≈ 3.21 µM)
EC50 (L132): > 10 µg/mL
EC50 (BRISTOL8): 4.8 µg/mL (≈ 9.62 µM)
EC50 (A549): > 10 µg/mL
EC50 (Jurkat): 1.8 µg/mL (≈ 3.61 µM)
EC50 (PA-1): 4.1 µg/mL (≈ 8.22 µM)
EC50 (DU-145): 2.6 µg/mL (≈ 5.21 µM)

C=C(C)[C@@H]1CC[C@]2(C(=O)OCC(=O)O)CC[C@]3(C)C(CCC4[C@@]5(C)CC[C@H](O)C(C)(C)C5CC[C@]43C)C12 (stereo partly specified)
EC50 (MOLT-4): 3.1 µg/mL (≈ 6.02 µM)
EC50 (U-937): > 10 µg/mL
EC50 (L132): > 10 µg/mL
EC50 (A549): > 10 µg/mL
EC50 (Jurkat): > 10 µg/mL
EC50 (CCRF-CEM): > 10 µg/mL
EC50 (PA-1): 1.3 µg/mL (≈ 2.53 µM)
EC50 (DU-145): > 10 µg/mL

C=C(C)[C@@H]1CC[C@]2(C(=O)O)CC[C@]3(C)C(CCC4[C@@]5(C)CC[C@H](OC(=O)CC)C(C)(C)C5CC[C@]43C)C12 (stereo partly specified)
EC50 (MOLT-4): 3.3 µg/mL (≈ 6.44 µM)
EC50 (U-937): 6.8 µg/mL (≈ 13.3 µM)
EC50 (L132): > 10 µg/mL
EC50 (BRISTOL8): 2.1 µg/mL (≈ 4.1 µM)
EC50 (A549): > 10 µg/mL
EC50 (Jurkat): 2.1 µg/mL (≈ 4.1 µM)
EC50 (CCRF-CEM): 5.5 µg/mL (≈ 10.7 µM)
EC50 (PA-1): 3.7 µg/mL (≈ 7.22 µM)
EC50 (DU-145): 4.2 µg/mL (≈ 8.19 µM)

CC(C)[C@@H]1CC[C@]2(C(=O)O)CC[C@]3(C)C(CCC4[C@@]5(C)CC(Br)C(=O)C(C)(C)C5CC[C@]43C)C12 (stereo partly specified)
EC50 (MOLT-4): 0.4 µg/mL (≈ 0.747 µM)
EC50 (U-937): 1.3 µg/mL (≈ 2.43 µM)
EC50 (L132): > 10 µg/mL
EC50 (BRISTOL8): 2.9 µg/mL (≈ 5.41 µM)
EC50 (A549): > 10 µg/mL
EC50 (Jurkat): 0.7 µg/mL (≈ 1.31 µM)
EC50 (CCRF-CEM): 0.3 µg/mL (≈ 0.56 µM)
EC50 (PA-1): 0.5 µg/mL (≈ 0.934 µM)
EC50 (DU-145): 3 µg/mL (≈ 5.6 µM)

COC(=O)CCOC(=O)[C@]12CC[C@@H](C(C)C)C1C1CCC3[C@@]4(C)CC(Br)C(=O)C(C)(C)C4CC[C@@]3(C)[C@]1(C)CC2 (stereo partly specified)
EC50 (MOLT-4): 1.2 µg/mL (≈ 1.93 µM)
EC50 (U-937): 1.2 µg/mL (≈ 1.93 µM)
EC50 (L132): > 10 µg/mL
EC50 (BRISTOL8): 2.3 µg/mL (≈ 3.7 µM)
EC50 (A549): > 10 µg/mL
EC50 (Jurkat): 1.9 µg/mL (≈ 3.06 µM)
EC50 (CCRF-CEM): 1.9 µg/mL (≈ 3.06 µM)
EC50 (PA-1): 4.8 µg/mL (≈ 7.72 µM)
EC50 (DU-145): 6.6 µg/mL (≈ 10.6 µM)

CC1(C)C(=O)C(Br)C[C@@]2(C)C1CC[C@]1(C)C2CCC2C3[C@H](C(C)(Br)CBr)CC[C@]3(C(=O)O)CC[C@]21C (stereo partly specified)
EC50 (MOLT-4): 5.9 µg/mL (≈ 8.51 µM)
EC50 (U-937): 2.1 µg/mL (≈ 3.03 µM)
EC50 (L132): > 10 µg/mL
EC50 (BRISTOL8): 3.8 µg/mL (≈ 5.48 µM)
EC50 (A549): > 10 µg/mL
EC50 (Jurkat): 2.1 µg/mL (≈ 3.03 µM)
EC50 (CCRF-CEM): 2.8 µg/mL (≈ 4.04 µM)
EC50 (PA-1): 5.1 µg/mL (≈ 7.36 µM)
EC50 (DU-145): 3.6 µg/mL (≈ 5.19 µM)

C=C(C)[C@@H]1CC[C@]2(C(=O)O)CC[C@]3(C)C(CCC4[C@@]5(C)CC[C@H](OC(=O)C(C)(C)C)C(C)(C)C5CC[C@]43C)C12 (stereo partly specified)
EC50 (MOLT-4): 2.4 µg/mL (≈ 4.44 µM)
EC50 (U-937): > 10 µg/mL
EC50 (L132): > 10 µg/mL
EC50 (BRISTOL8): > 10 µg/mL
EC50 (A549): > 10 µg/mL
EC50 (Jurkat): > 10 µg/mL
EC50 (CCRF-CEM): > 10 µg/mL
EC50 (PA-1): 0.7 µg/mL (≈ 1.29 µM)
EC50 (DU-145): 1 µg/mL (≈ 1.85 µM)

CC(=O)O[C@H]1C(Br)C[C@@]2(C)C(CC[C@]3(C)C2CCC2C4[C@H](C(C)(Br)CBr)CC[C@]4(C(=O)O)CC[C@]23C)C1(C)C (stereo partly specified)
EC50 (MOLT-4): 2.8 µg/mL (≈ 3.8 µM)
EC50 (U-937): 0.3 µg/mL (≈ 0.407 µM)
EC50 (L132): > 10 µg/mL
EC50 (BRISTOL8): 1.4 µg/mL (≈ 1.9 µM)
EC50 (A549): > 10 µg/mL
EC50 (Jurkat): 6.9 µg/mL (≈ 9.36 µM)
EC50 (CCRF-CEM): 2.7 µg/mL (≈ 3.66 µM)
EC50 (PA-1): 2.4 µg/mL (≈ 3.25 µM)
EC50 (DU-145): 2.5 µg/mL (≈ 3.39 µM)

COC(=O)COC(=O)[C@]12CC[C@@H](C(C)C)C1C1CCC3[C@@]4(C)CC[C@H](O)C(C)(C)C4CC[C@@]3(C)[C@]1(C)CC2 (stereo partly specified)
EC50 (MOLT-4): 2.8 µg/mL (≈ 5.28 µM)
EC50 (U-937): > 10 µg/mL
EC50 (L132): > 10 µg/mL
EC50 (BRISTOL8): 3.4 µg/mL (≈ 6.41 µM)
EC50 (A549): > 10 µg/mL
EC50 (Jurkat): 5.5 µg/mL (≈ 10.4 µM)
EC50 (CCRF-CEM): 2.5 µg/mL (≈ 4.71 µM)
EC50 (PA-1): 0.5 µg/mL (≈ 0.942 µM)
EC50 (DU-145): > 10 µg/mL

From ChEMBL document CHEMBL1138817, “Synthesis and cytotoxic activity of 3-O-acyl/3-hydrazine /2-bromo/20,29-dibromo betulinic acid derivatives” (2004)
